Reference: ChEMBL document CHEMBL1800055, “Orally active MMP-1 sparing α-tetrahydropyranyl and α-piperidinyl sulfone matrix metalloproteinase (MMP) inhibitors with efficacy in cancer, arthritis, and cardiovascular disease” (J Med Chem, 2010)

Key:
[1] = biological target: Matrix metalloproteinase-9 (Homo sapiens, UniProt P14780)
[2] = biological target: 72 kDa type IV collagenase (Homo sapiens, UniProt P08253)
[3] = biological target: T1, Interstitial collagenase (Homo sapiens, UniProt P03956); assay type: cell-based, HT-1080
T1 sequence (P03956 whole entry): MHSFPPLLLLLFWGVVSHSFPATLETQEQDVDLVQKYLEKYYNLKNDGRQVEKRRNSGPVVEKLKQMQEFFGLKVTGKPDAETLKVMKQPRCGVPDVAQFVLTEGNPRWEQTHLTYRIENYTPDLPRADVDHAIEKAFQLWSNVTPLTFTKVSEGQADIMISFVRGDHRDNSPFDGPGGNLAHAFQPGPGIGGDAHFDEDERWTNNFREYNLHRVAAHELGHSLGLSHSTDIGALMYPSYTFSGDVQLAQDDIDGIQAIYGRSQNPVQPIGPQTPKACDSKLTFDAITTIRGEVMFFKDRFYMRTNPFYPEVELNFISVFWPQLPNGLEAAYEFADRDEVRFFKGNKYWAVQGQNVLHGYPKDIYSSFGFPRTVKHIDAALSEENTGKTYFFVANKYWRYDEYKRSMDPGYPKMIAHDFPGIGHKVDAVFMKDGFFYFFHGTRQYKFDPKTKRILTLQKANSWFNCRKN

[4] = biological target: Matrix metalloproteinase-14 (Homo sapiens, UniProt P50281)
[5] = biological target: Collagenase 3 (Homo sapiens, UniProt P45452)
[6] = biological target: Neutrophil collagenase (Homo sapiens, UniProt P22894)
Sequence of Neutrophil collagenase (P22894 whole entry): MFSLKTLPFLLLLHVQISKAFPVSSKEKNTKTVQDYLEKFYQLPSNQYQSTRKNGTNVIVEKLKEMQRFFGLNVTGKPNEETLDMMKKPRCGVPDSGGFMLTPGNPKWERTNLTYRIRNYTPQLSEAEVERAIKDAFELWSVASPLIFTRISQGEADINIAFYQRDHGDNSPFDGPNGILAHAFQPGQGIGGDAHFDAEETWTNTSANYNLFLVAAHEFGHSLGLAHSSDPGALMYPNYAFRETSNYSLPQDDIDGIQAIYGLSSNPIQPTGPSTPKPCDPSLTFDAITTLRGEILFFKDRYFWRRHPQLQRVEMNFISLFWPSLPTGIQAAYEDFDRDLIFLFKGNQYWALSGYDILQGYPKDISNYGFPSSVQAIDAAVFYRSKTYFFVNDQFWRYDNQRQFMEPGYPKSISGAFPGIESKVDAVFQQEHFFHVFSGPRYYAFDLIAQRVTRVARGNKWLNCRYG

[7] = biological target: Stromelysin-1 (Homo sapiens, UniProt P08254)
Sequence of Stromelysin-1 (P08254 whole entry): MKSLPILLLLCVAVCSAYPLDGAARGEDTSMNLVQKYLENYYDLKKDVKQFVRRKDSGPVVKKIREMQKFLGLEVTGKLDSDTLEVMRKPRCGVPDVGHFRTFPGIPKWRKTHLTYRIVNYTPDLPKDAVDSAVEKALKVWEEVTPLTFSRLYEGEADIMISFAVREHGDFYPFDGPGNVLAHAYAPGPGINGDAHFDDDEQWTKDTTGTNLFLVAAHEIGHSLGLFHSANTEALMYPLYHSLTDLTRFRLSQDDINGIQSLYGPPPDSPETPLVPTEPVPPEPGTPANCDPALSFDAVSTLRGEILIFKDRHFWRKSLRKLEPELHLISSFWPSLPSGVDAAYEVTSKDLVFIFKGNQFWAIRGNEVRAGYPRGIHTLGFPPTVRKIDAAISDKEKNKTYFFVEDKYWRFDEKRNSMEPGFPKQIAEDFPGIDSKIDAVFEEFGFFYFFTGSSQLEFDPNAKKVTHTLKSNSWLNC

[8] = Half life in rat at 20 mg/kg, po; assay type: ADME, organism-based; design: dose 20 mg/kg, route oral; settings: in vivo
[9] = Cmax in rat at 20 mg/kg, po; assay type: ADME, organism-based; design: dose 20 mg/kg, route oral; settings: in vivo
[10] = Oral bioavailability in rat at 20 mg/kg; assay type: ADME, organism-based; settings: in vivo
[11] = tested on: Rattus norvegicus; experiment: Plasma concentration in rat at 20 mg/kg, po; assay type: ADME, organism-based; design: dose 20 mg/kg, route oral; settings: in vivo; further: time not given here
[12] = biological target: T2, Matrilysin (Homo sapiens, UniProt P09237)
T2 sequence (P09237 whole entry): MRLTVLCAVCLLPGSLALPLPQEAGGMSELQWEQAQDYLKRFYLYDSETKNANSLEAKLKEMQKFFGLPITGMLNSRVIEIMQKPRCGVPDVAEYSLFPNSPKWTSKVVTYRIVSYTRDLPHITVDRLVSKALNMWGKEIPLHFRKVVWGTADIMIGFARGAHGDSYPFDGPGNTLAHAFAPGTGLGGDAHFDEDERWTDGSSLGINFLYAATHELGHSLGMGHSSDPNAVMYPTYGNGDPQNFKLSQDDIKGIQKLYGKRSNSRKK

[13] = Half life in rat at 10 mg/mL, iv and po; assay type: ADME, organism-based; settings: in vivo
[14] = Cmax in rat at 10 mg/mL, iv and po; assay type: ADME, organism-based; settings: in vivo
[15] = tested on: Rattus norvegicus; experiment: Plasma concentration in rat at 10 mg/mL, iv and po; assay type: ADME, organism-based; settings: in vivo; further: time not given here
[16] = Oral bioavailability in rat at 10 mg/mL; assay type: ADME, organism-based; settings: in vivo

Sequence of 72 kDa type IV collagenase (P08253 whole entry): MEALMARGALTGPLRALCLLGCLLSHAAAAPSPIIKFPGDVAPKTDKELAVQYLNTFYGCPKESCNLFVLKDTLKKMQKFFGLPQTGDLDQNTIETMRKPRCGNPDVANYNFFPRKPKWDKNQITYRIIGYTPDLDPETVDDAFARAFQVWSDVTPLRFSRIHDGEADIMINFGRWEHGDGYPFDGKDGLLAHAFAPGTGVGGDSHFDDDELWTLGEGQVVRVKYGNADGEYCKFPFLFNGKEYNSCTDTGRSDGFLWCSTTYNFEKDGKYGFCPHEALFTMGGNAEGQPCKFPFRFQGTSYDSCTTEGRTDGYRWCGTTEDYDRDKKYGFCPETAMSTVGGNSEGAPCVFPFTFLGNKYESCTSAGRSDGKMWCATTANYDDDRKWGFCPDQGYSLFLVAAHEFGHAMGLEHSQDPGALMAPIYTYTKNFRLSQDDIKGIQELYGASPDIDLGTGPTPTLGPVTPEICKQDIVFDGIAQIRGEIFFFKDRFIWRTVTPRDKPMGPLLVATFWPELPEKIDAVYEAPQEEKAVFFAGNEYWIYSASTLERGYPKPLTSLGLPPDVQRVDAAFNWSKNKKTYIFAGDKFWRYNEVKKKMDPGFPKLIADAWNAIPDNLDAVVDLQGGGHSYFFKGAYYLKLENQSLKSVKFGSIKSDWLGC
Sequence of Matrix metalloproteinase-9 (P14780 whole entry): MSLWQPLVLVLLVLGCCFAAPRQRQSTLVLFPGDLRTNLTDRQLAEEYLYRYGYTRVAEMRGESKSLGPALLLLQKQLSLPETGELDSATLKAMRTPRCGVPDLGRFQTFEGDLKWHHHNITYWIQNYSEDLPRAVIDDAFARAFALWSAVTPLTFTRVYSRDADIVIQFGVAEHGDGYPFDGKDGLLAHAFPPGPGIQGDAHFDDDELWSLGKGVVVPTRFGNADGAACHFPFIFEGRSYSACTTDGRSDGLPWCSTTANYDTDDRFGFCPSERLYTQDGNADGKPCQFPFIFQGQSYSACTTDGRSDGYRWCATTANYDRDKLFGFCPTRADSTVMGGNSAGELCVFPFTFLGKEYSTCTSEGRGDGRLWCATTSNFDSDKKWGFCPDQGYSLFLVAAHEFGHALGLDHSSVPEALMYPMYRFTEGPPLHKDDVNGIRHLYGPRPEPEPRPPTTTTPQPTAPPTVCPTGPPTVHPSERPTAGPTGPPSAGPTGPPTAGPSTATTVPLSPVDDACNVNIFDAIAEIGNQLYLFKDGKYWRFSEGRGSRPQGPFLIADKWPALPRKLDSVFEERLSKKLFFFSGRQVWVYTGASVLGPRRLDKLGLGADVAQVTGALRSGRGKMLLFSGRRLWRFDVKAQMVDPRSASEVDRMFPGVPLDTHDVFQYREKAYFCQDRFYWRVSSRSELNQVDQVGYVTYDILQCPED

## CC(C)Oc1ccc(Oc2ccc(S(=O)(=O)C3(C(=O)NO)CCOCC3)cc2)cc1
[1]
  IC50: < 0.1 nM
[2]
  IC50: < 0.1 nM
[3]
  IC50: 300 nM
[4]
  IC50: 10.5 nM
[5]
  IC50: 0.1 nM

## C#CCN1CCC(C(=O)NO)(S(=O)(=O)c2ccc(Oc3ccc(OC(F)(F)F)cc3)cc2)CC1
[1]
  IC50: < 0.1 nM
[2]
  IC50: < 0.1 nM
[3]
  IC50: 2600 nM
[5]
  IC50: 0.2 nM

## O=C(NO)C1(S(=O)(=O)c2ccc(Oc3cccc(Cl)c3)cc2)CCOCC1
[4]
  IC50: 4.5 nM
[6]
  IC50: 1.8 nM
[7]
  IC50: 18.1 nM

## CC(C)N1CCC(C(=O)NO)(S(=O)(=O)c2ccc(Oc3ccc(OC(F)(F)F)cc3)cc2)CC1
[1]
  IC50: < 0.1 nM
[2]
  IC50: < 0.1 nM
[3]
  IC50: > 10000 nM
[6]
  IC50: 0.4 nM
[5]
  IC50: < 0.1 nM

## CCOc1ccc(Oc2ccc(S(=O)(=O)C3(C(=O)NO)CCN(C4CC4)CC3)cc2)cc1
[1]
  IC50: 0.2 nM
[2]
  IC50: 0.1 nM
[3]
  IC50: 1000 nM
[5]
  IC50: 0.25 nM

## CC(C)N1CCC(C(=O)NO)(S(=O)(=O)c2ccc(Oc3ccc(C(F)(F)F)cc3)cc2)CC1
[2]
  IC50: 0.3 nM
[8]
  half-life: 2.08 h
[3]
  IC50: > 10000 nM
[6]
  IC50: 1.4 nM
[9]
  Cmax: 5120 ng/mL
[10]
  bioavailability: 48.3%
[7]
  IC50: 40 nM
[11]
  Cp: 429 ng/mL
[5]
  IC50: 5.5 nM

## O=C(NO)C1(S(=O)(=O)c2ccc(Oc3ccc(C(F)(F)F)cc3)cc2)CCN(C2CC2)CC1
[2]
  IC50: 0.1 nM
[8]
  half-life: 1.48 h
[6]
  IC50: 1.3 nM
[9]
  Cmax: 8320 ng/mL
[10]
  bioavailability: 36.3%
[7]
  IC50: 76.8 nM
[12]
  IC50: > 10000 nM
[11]
  Cp: 631 ng/mL

## COCCN1CCC(C(=O)NO)(S(=O)(=O)c2ccc(Oc3ccc4c(c3)OCO4)cc2)CC1
[2]
  IC50: 0.25 nM
[3]
  IC50: 2400 nM
[4]
  IC50: 4 nM
[6]
  IC50: 1.2 nM
[7]
  IC50: 20 nM
[5]
  IC50: 0.2 nM

## O=C(NO)C1(S(=O)(=O)c2ccc(Oc3ccccc3)cc2)CCOCC1
[2]
  IC50: 0.1 nM
[6]
  IC50: 0.4 nM
[13]
  half-life: 1.74 h
[7]
  IC50: 7 nM
[14]
  Cmax: 872 ng/mL
[15]
  Cp: 50 ng/mL
[16]
  bioavailability: 5.8%
[5]
  IC50: 0.1 nM

## CSc1ccc(Oc2ccc(S(=O)(=O)C3(C(=O)NO)CCOCC3)cc2)cc1
[1]
  IC50: < 0.1 nM
[2]
  IC50: < 0.1 nM
[3]
  IC50: 2500 nM
[5]
  IC50: < 0.1 nM

## O=C(NO)C1(S(=O)(=O)c2ccc(Oc3ccc4c(c3)OCCO4)cc2)CCN(C2CC2)CC1
[2]
  IC50: 0.2 nM
[8]
  half-life: 3.3 h
[3]
  IC50: 6000 nM
[6]
  IC50: 1.5 nM
[9]
  Cmax: 9460 ng/mL
[10]
  bioavailability: 16.6%
[7]
  IC50: 21.5 nM
[11]
  Cp: 15 ng/mL
[5]
  IC50: 0.5 nM

## O=C(NO)C1(S(=O)(=O)c2ccc(Oc3ccc(OC(F)(F)F)cc3)cc2)CCNCC1
[2]
  IC50: < 0.1 nM
[8]
  half-life: 1.78 h
[3]
  IC50: 10000 nM
[6]
  IC50: 0.7 nM
[9]
  Cmax: 630 ng/mL
[10]
  bioavailability: 6.7%
[11]
  Cp: 223 ng/mL
[5]
  IC50: 0.1 nM

## O=C(NO)C1(S(=O)(=O)c2ccc(Oc3ccc(Cl)cc3)cc2)CCOCC1
[6]
  IC50: 1.2 nM
[13]
  half-life: 1.5 h
[7]
  IC50: 18.1 nM
[14]
  Cmax: 3120 ng/mL
[15]
  Cp: 506 ng/mL
[16]
  bioavailability: 45.8%

## CC(=O)N1CCC(C(=O)NO)(S(=O)(=O)c2ccc(Oc3ccc(OC(F)(F)F)cc3)cc2)CC1
[8]
  half-life: 1.06 h
[4]
  IC50: 9 nM
[6]
  IC50: 1.6 nM
[9]
  Cmax: 159 ng/mL
[10]
  bioavailability: 4%
[7]
  IC50: 18.1 nM
[11]
  Cp: 72 ng/mL

## O=C(NO)C1(S(=O)(=O)c2ccc(Oc3ccc(O)cc3)cc2)CCOCC1
[1]
  IC50: < 0.1 nM
[2]
  IC50: 0.2 nM
[3]
  IC50: 400 nM
[4]
  IC50: 1.71 nM
[5]
  IC50: 0.3 nM

## O=C(NO)C1(S(=O)(=O)c2ccc(Oc3ccncc3)cc2)CCOCC1
[2]
  IC50: 0.5 nM
[13]
  half-life: 0.25 h
[14]
  Cmax: 1610 ng/mL
[15]
  Cp: 3 ng/mL
[16]
  bioavailability: 42.3%

## O=C(NO)C1(S(=O)(=O)c2ccc(Oc3cccc(C(F)(F)F)c3)cc2)CCOCC1
[2]
  IC50: 0.8 nM
[3]
  IC50: > 10000 nM
[6]
  IC50: 30 nM
[13]
  half-life: 1.12 h
[7]
  IC50: 55.3 nM
[14]
  Cmax: 1140 ng/mL
[15]
  Cp: 257 ng/mL
[16]
  bioavailability: 18.3%
[5]
  IC50: 0.8 nM

## O=C(NO)C1(S(=O)(=O)c2ccc(Oc3ccc(OC(F)(F)F)cc3)cc2)CCOCC1
[4]
  IC50: 10.6 nM
[6]
  IC50: 0.9 nM
[13]
  half-life: 1.87 h
[7]
  IC50: 35 nM
[14]
  Cmax: 8580 ng/mL
[15]
  Cp: 1172 ng/mL
[16]
  bioavailability: 35.9%

## O=C(NO)C1(S(=O)(=O)c2ccc(Oc3ccc(OC(F)(F)F)cc3)cc2)CCN(Cc2ccccn2)CC1
[8]
  half-life: 1.25 h
[3]
  IC50: 6000 nM
[6]
  IC50: 0.6 nM
[9]
  Cmax: 36800 ng/mL
[10]
  bioavailability: 46.8%
[7]
  IC50: 115 nM
[12]
  IC50: > 10000 nM
[11]
  Cp: 1850 ng/mL
[5]
  IC50: < 0.1 nM

## CN1CCC(C(=O)NO)(S(=O)(=O)c2ccc(Oc3ccc(OC(F)(F)F)cc3)cc2)CC1
[1]
  IC50: 0.18 nM
[2]
  IC50: < 0.1 nM
[3]
  IC50: > 10000 nM
[5]
  IC50: 0.6 nM

## O=C(NO)C1(S(=O)(=O)c2ccc(Oc3ccc(SC(F)(F)F)cc3)cc2)CCOCC1
[2]
  IC50: 0.4 nM
[3]
  IC50: 5000 nM
[6]
  IC50: 0.4 nM
[13]
  half-life: 1.71 h
[14]
  Cmax: 7270 ng/mL
[15]
  Cp: 3113 ng/mL
[16]
  bioavailability: 49%

## O=C(NO)C1(S(=O)(=O)c2ccc(Oc3ccc4c(c3)OCO4)cc2)CCN(C2CC2)CC1
[1]
  IC50: < 0.1 nM
[2]
  IC50: 0.5 nM
[3]
  IC50: 1000 nM
[9]
  Cmax: 13100 ng/mL
[11]
  Cp: 206 ng/mL
[5]
  IC50: 0.3 nM

## C#CCN1CCC(C(=O)NO)(S(=O)(=O)c2ccc(Oc3ccc(C(C)C)cc3)cc2)CC1
[2]
  IC50: 0.1 nM
[8]
  half-life: 0.73 h
[3]
  IC50: > 10000 nM
[6]
  IC50: 1.6 nM
[9]
  Cmax: 5310 ng/mL
[10]
  bioavailability: 23.8%
[7]
  IC50: 32.6 nM
[11]
  Cp: 21 ng/mL
[5]
  IC50: 0.25 nM

## O=C(NO)C1(S(=O)(=O)c2ccc(Oc3ccc(C(F)(F)F)cc3)cc2)CCNCC1
[2]
  IC50: 1.7 nM
[8]
  half-life: 1.88 h
[3]
  IC50: > 10000 nM
[4]
  IC50: 160 nM
[6]
  IC50: 2 nM
[9]
  Cmax: 540 ng/mL
[10]
  bioavailability: 12.4%
[7]
  IC50: 64.7 nM
[11]
  Cp: 150 ng/mL
[5]
  IC50: 1.2 nM
